Values quoted from earlier work as cited in patent publication US20170119792A1, “METHODS AND COMPOSITIONS FOR DERMATOLOGICAL USE COMPRISING CLOBETASOL AND HALOBETASOL AND BIOPOLYMERS” (APEX LABORATORIES PRIVATE LIMITED, priority 2015, published 2017).

Structure (SMILES) | solubility in water
CCC(=O)O[C@]1(C(=O)CCl)[C@@H](C)C[C@H]2[C@@H]3CCC4=CC(=O)C=C[C@]4(C)[C@@]3(F)[C@@H](O)C[C@@]21C [Clobetasol propionate, (11β, 16β)-21-chloro-9-fluoro-11-hydroxy-16-methyl-17-(1-oxopropoxy)-pregna-1,4-diene-3, 20-dione] | insoluble in water
CCC(=O)O[C@]1(C(=O)CCl)[C@@H](C)C[C@H]2[C@@H]3C[C@H](F)C4=CC(=O)C=C[C@]4(C)[C@@]3(F)[C@@H](O)C[C@@]21C [Halobetasol propionate, 21-chloro-6α, 9-difluoro-11β, 17-dihydroxy-16β-methylpregna-1,4-diene-3, 20-dione17-propionate] | insoluble in water
